Reference: article PMC9394307, “Discovery of Putative Dual Inhibitor of Tubulin and EGFR by Phenotypic Approach on LASSBio-1586 Homologs” (Pharmaceuticals, 2022)
Where two headings read alike, the source gives them in different places.

Legend:
[1] = MTT cell viability assay, GM16000 lymphocytes; type: cell-based; conditions: GM16000 lymphocyte cells (non-tumor), human lymphocytes, value (95% CI)
Experimental: (§1) The cytotoxic activity of compounds 3–13 was determined based on an MTT assay against different human tumor cell lines, using LASSBio-1586 (2), LASSBio-1735 (3), CA-4 (1) and pelitinib as standards (Table 2). To determine the cytotoxic selectivity index, compounds were also evaluated toward human lymphocytes (Table 3).
To establish the cytotoxic selective index (SI) of LASSBio-1586 homologs, they were studied on human lymphocyte cell lines (GM16000), using the MTT assay. The SI was calculated by the ratio between the CC50 on tumor and non-tumor cell lines. Although there is no consensus, values of SI ≥ 10 is considered satisfactory to assign safety to a new cytotoxic agent. This value means that the compound is more than ten times more cytotoxic to the tumor cell line than to normal cell line.
(§2) The target compounds were tested (0.0001–100 µM) for cytotoxic activity against selected human cancer cell lines, such as HL-60 (acute promyelocytic leukemia), MCF-7 (mammary adenocarcinoma), PC-3 (prostate adenocarcinoma), H1975 (non-small cell lung cancer—EGFR^L858R+T790M), PC-9 (non-small cell lung cancer—EGFR^L858R) H292 (mucoepidermoid pulmonary carcinoma—EGFR wild type), LoVo (colorectal adenocarcinoma—EGFRwild type) and GM16000 (lymphocyte). All the human cancer cell lines were purchased from Cell Bank of Rio de Janeiro—BCRJ. They were cultured in RPMI 1640 medium with 10% (v/v) FBS, 2 mM glutamine, at 37 °C in a humidified incubator containing 5% CO2.
(§3) The cytotoxicity of the compounds was evaluated by the MTT assay. The cell lines were cultured in 96 well plates for 72 h with a density of 0.1 × 10^5 cells/mL to 0.7 × 10^5 cells/mL to adherent cell lines. For lymphocytic lines, a density of 0.3 × 10^6 cells/mL was used. Afterwards they were treated with varying concentrations of the target compounds 2–12 (0.0001–100 µM), CA-4 (1) and pelitinib at 37 °C, in triplicate. The medium was incubated with 20 μL of 5 mg/mL MTT solution for 3 h in a humidified incubator containing 5% CO2 [11].
(§4) The purple-colored formazan crystals formed in the wells were dissolved in DMSO and their absorbance was measured at 595 nm with a microplate reader (SpectraMax M5, Molecular Devices).

H1975 cells = assay: Immunofluorescence of β-tubulin / microtubules; type: cell-based, human; conditions: H1975, 48 h, CA-4 0.3 µM, vincristine 0.5 µM, taxol 0.1 µM, LASSBio-1586 10 µM, LASSBio-1735 0.5 µM, LASSBio-2070 4.5 µM, LASSBio-2074 20 µM
Experimental: Antitubulin agents have been broadly classified into destabilizing or stabilizing agents, based on their interference with the dynamic balance of polymerization or depolymerization of microtubules. […] CA-4 (1, 0.3 µM), vincristine (0.5 µM) and taxol (0.1 µM) were used as standard controls.
After incubation, cells were rinsed with PBS and fixed with 4% paraformaldehyde in PBS for 10 min at room temperature. They were then permeabilized with 0.5% Triton-X 100 in PBS 3 times for 10 min. The same solution was used for all subsequent washing steps. Cells were incubated with an anti-beta-tubulin antibody for 1 h at 37 °C. After incubation, cells were washed for 30 min and incubated with Alexa Fluor® 488, conjugated secondary antibody for 1 h at 37 °C, and nuclei were labeled with DAPI (0.1 mg/mL in 0.9% NaCl).
Live cultured cells grown in coverslips were mounted in Prolong Gold solution (Molecular Probes, USA) and were imaged on a Leica TCS SPE confocal microscope (Leica Microsystems, Germany) using 63x 1.3 N.A. oil immersion and the images acquired by the LAS X software. Cell morphology, focusing on the microtubules was analyzed, qualitatively, using the public domain NIH ImageJ Program (developed at the National Institutes of the USA Health and available on the internet at http://imagej.nih.gov/ij/ (accessed on 1 September 2021).

[2] = MTT cell viability assay, GM16000 lymphocytes; type: cell-based; conditions: GM16000 lymphocyte cells (non-tumor), human lymphocytes, value (95% CI); remark: listed apart in the source
H1975 = assay: MTT cell viability assay, H1975; type: cell-based, human; conditions: Homo sapiens, MTT, value (95% CI), read-out: CC50 (µM) (CI) H1975
Experimental: as §1, §2
as §3, with “The cell lines were cultured in 96 well plates for 72 h with a density of 0.1 × 10^5 cells/mL to 0.7 × 10^5 cells/mL to adherent cell lines.” left out
as §4

LoVo = assay: MTT cell viability assay, LoVo; type: cell-based; conditions: Homo sapiens, MTT, 72 h, value (95% CI), read-out: CC50 (µM) (CI) LoVo
Experimental: as §1, §2, §3, §4

PC-9 = assay: MTT cell viability assay, PC-9; type: cell-based, human; conditions: Homo sapiens, MTT, value (95% CI), read-out: CC50 (µM) (CI) PC-9
Experimental: as §1, §2
as §3, with “The cell lines were cultured in 96 well plates for 72 h with a density of 0.1 × 10^5 cells/mL to 0.7 × 10^5 cells/mL to adherent cell lines.” left out
as §4

HL-60 = assay: MTT cell viability assay, HL-60; type: cell-based, human; conditions: MTT, value (95% CI), read-out: CC50 (µM) (CI) HL-60
Experimental: as §1, §2
as §3, with “The cell lines were cultured in 96 well plates for 72 h with a density of 0.1 × 10^5 cells/mL to 0.7 × 10^5 cells/mL to adherent cell lines.” left out
as §4

H292 = assay: MTT cell viability assay, H292; type: cell-based, human; conditions: Homo sapiens, MTT, value (95% CI), read-out: CC50 (µM) (CI) H292
Experimental: as §1, §2
as §3, with “The cell lines were cultured in 96 well plates for 72 h with a density of 0.1 × 10^5 cells/mL to 0.7 × 10^5 cells/mL to adherent cell lines.” left out
as §4

[3] = Homo sapiens, HL-60, 48 h, 48 h
[4] = Homo sapiens, HL-60, 72 h, 72 h

Structure (SMILES) | CC50 at 72 h [1] [µM] | cell morphology after treatment (H1975 cells) | effect on microtubules (stabilizing / destabilizing profile) (H1975 cells) | CC50 at 48 h [2] [µM] | CC50 (H1975; NCI-H1975, 48 h, 48 h) [µM] | CC50 (H1975; NCI-H1975, 72 h, 72 h) [µM] | CC50 (LoVo) [µM] | CC50 (PC-9; PC-9, 48 h, 48 h) [µM] | CC50 (PC-9; PC-9, 72 h, 72 h) [µM] | CC50 (HL-60; [3]) [µM] | CC50 (HL-60; [4]) [µM] | CC50 (H292; NCI-H292, 48 h, 48 h) [µM] | CC50 (H292; NCI-H292, 72 h, 72 h) [µM] | effect on microtubules (stabilizing / destabilizing profile) (H1975 cells; listed as 2 (LASSBio-1586)) | CC50 (HL-60; 72 h) [µM] | effect on microtubules (stabilizing / destabilizing profile) (H1975 cells; listed as 3 (LASSBio-1735))
CCOC(=O)CN(/N=C/c1ccccc1)C(=O)c1cc(OC)c(OC)c(OC)c1 [LASSBio-2074 (11), Ethyl (E)-N-(benzylideneamino)-N-(3,4,5-trimethoxybenzoyl)glycinate] | 4.19 | more spread-out morphology | cell morphology similar to microtubule-stabilizing drugs | 3.91 | 4.83 | 1.2 | 0.106 | 1.41 | 0.202 | 5.69 | 0.126 | 0.593 | 0.75 |  |  | 
COc1cc(C(=O)N/N=C/c2ccccc2)cc(OC)c1OC [LASSBio-1586 (2), (E)-N’-benzylidene-3,4,5-trimetoxybenzohydrazide] | 1.51 | more spread-out morphology | cell morphology similar to microtubule-stabilizing drugs | 0.763 | 2.02 | 1.57 | 0.039 | 0.94 | 0.587 | 3.59 | 2.08 | 2.19 | 1.4 | microtubule destabilizing behavior | 2.13 | 
COc1cc(C(=O)N(C)/N=C/c2ccccc2)cc(OC)c1OC [LASSBio-1735 (3), (E)-N’-benzylidene-3,4,5-trimethoxy-N-methylbenzohydrazide] | 0.131 | more spread-out morphology | cell morphology similar to microtubule-stabilizing drugs | 0.059 | 0.096 | 0.079 | 0.149 | 1.34 | 0.09 | 8.77 | 0.039 | 0.152 | 0.25 |  |  | microtubule destabilizing behavior
COc1cc(C(=O)N(Cc2ccccc2)/N=C/c2ccccc2)cc(OC)c1OC [LASSBio-2070 (10), (E)-N-benzyl-N’-benzylidene-3,4,5-trimethoxybenzohydrazide] | 1.05 | rounded shape | typical response of microtubule destabilizing agents | 0.935 | 0.903 | 2.79 | 0.208 | 0.244 | 0.337 | 6.29 | 0.172 | 0.147 | 0.883 |  |  | 
